The text below walks through data of PubChem BioAssay AID179 (DTP/NCI, 2004).

Active and inactive are the calls of the source.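 The calls were made as follows: active = compounds giving half or more protection of infected cells from virus-caused growth loss, again on retest; inactive = the rest.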

The subject of this assay is CEM cells HIV-1 protection, formazan growth assay. The assay is described as follows: NCI AIDS Antiviral Assay. The settings on record: for IC50: measured here: growth of uninfected CEM cells. An outline of the steps: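 CEM (human) cells, HIV-1 infected vs uninfected, 5-point dosing, formazan growth read-out. Retest threshold 50% protection.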

`NC(=O)c1ccccc1NC(=O)C(=O)C(C(=O)c1ccc2ccccc2c1)C1OC(=O)c2ccccc21` (stereo not drawn): the EC50 is over 52.5 µM and the IC50 stood at 15.8 µM.

Turning to `CCCCC[C@@H]1OC(=O)/C(=C2/CC[C@@H](CCCC)O2)C(=O)[C@@H]1O`, the outcome was inactive.

In the case of `CCc1ccccc1NC(=O)CCc1nc(=S)[nH][nH]1`, the EC50 was over 912 µM and the IC50 was over 912 µM. Turning to `COc1ccc(Cc2nnc(C)c3c(C)[nH]nc23)cc1`, the EC50 was over 525 µM and the 50% inhibitory concentration (IC50) came to 33.9 µM. With `C(=C\CSc1ccccc1)/CSc1ccccc1`, the EC50 was over 13.8 µM and the IC50 was over 13.8 µM.

In the case of `CC(C)CCC[C@@H](C)C1CCC2[C@@H]3CCC4C[C@@H](CCC=C(c5cc(Cl)c(O)c(C(=O)O)c5)c5cc(Cl)c(O)c(C(=O)O)c5)CC[C@]4(C)C3CC[C@@]21C` (stereo partly drawn), the EC50 was 32.4 µM and the IC50 was over 100 µM.

As for `COC(=O)c1sc2c(=O)c(C(=O)OC)c(C(=O)OC)sc2c(=O)c1C(=O)OC`, the EC50 was over 151 µM and the IC50 was 12 µM. The like results for `CN(C)COC(=S)SSSC(=S)OCN(C)C` were, in that order, 0.195 µM and 0.724 µM. Take `COc1cc2c3c(c1OC)/C(=N/OS(=O)(=O)c1ccc(C)cc1)CC3N(S(=O)(=O)c1ccc(C)cc1)CC2` (stereo not drawn): the outcome was inactive. The same measure, in the same setting: to `CN(C)CC1CCCC(CN(C)C)C1OC(=O)c1ccccc1` (stereo not drawn) belongs “inactive”.

With `S=C(Nc1ccccc1)N(/N=C/C=C/c1ccccc1)c1nnc(-c2ccccc2)c(-c2ccccc2)n1`, the EC50 was over 70.8 µM and the IC50 turned out to be 43.7 µM.

Consider `COc1ccc(N=NC(=O)NC(Cc2ccccc2)C(=O)O)cc1` (stereo not drawn), for which the EC50 was over 200 µM and the IC50 came out at 20 µM. `CC(=O)Nc1c(C#N)c2n(c1C(=O)O)CCC2`: the EC50 was over 200 µM and the IC50 is over 200 µM.

In the case of `CC(C)[Si](OC12CCC(CC1O)CC2CO)(C(C)C)C(C)C` (stereo not drawn), the EC50 was over 200 µM and the IC50 was 24.5 µM. The like results for `CC1=CC(O)CC(C)(C)C1/C=C/C(C)=C/C=C/C(C)=C/C=C/C=C(C)/C=C/C=C(C)/C=C/C1=C(C)CC(O)CC1(C)C` (stereo not drawn) were, in that order, over 200 µM and 33.9 µM. For `Cc1noc(NS(=O)(=O)c2ccc(NC(=S)N/C=C(\C#N)C(N)=O)cc2)c1C`, the result was inactive. On to `COCO[C@@H]1C[C@H]2C(=O)Nc3ccccc3C(=O)N2C1`, for which the EC50 is over 200 µM and the IC50 was found to be 38 µM.

With `CCCNC(=O)c1sc(SC)nc1NC(=O)c1ccc(OC)cc1`, the EC50 was over 200 µM and the IC50 was over 200 µM. Turning to `CC1=C(C#N)C(=N)OC1(C)C1CC(=O)C=CC1=O` (stereo not drawn), the EC50 was over 200 µM and the IC50 worked out at 10.5 µM. Take `Cc1ccsc1C(=S)Nc1ccc(Cl)c(C(=O)OC(C(C)C)C(C)C)c1`: the EC50 was 0.309 µM and the IC50 came out at 21.4 µM.

In the case of `NC(=O)C(c1ccccc1)N1CCCCC1` (stereo not drawn), the outcome was inactive.

Consider `CN1BN(C)BN(C)B1`, for which the EC50 is over 2040 µM and the IC50 was over 2040 µM.

As for `C=CCc1cc(C=C(C#N)C#N)cc(OC)c1O`, the EC50 was over 200 µM and the IC50 came out at 97.7 µM.

Regarding `CC(=O)N/C(=C\C=C\CC=O)SC12CC3CC(CC(C3)C1)C2`, the EC50 was over 200 µM and the IC50 was 12.6 µM.

On to `CC#CCCCC1(C)CCCNC1=S` (stereo not drawn), for which the EC50 is over 200 µM and the IC50 was over 200 µM.

Turning to `COC(=O)C(Cl)=C1CC1`, the EC50 was over 1700 µM and the IC50 came to 93.3 µM. On to `CCCCCCCCCC1CC(=O)OC23CCCC(=O)C12O3` (stereo not drawn), for which the EC50 was over 32.4 µM and the IC50 is over 32.4 µM. As to `COc1cc(C[C@H]2C(=O)OC[C@@H]2Cc2ccc(OC)c(OC)c2)cc(OC)c1`, the EC50 was over 200 µM and the IC50 came to 91.2 µM. The like results for `CC(=O)OCC(OC(C)=O)C(OC(C)=O)C(OC(C)=O)C(OC(C)=O)C(OC(C)=O)c1nc2ccccc2[nH]1` (stereo not drawn) were, in that order, over 200 µM and over 200 µM.

Regarding `CC1CCCc2c(CC3CC(=O)NC(=O)C3)nc(N)nc21` (stereo not drawn), the EC50 is over 200 µM and the IC50 was over 200 µM. Consider `N#Cc1cccc(/C=C2\Cc3ccccc3C2=O)c1`, for which the EC50 was over 5.89 µM and the IC50 is over 5.89 µM. Consider `CCCN(CCC)CC(=O)Nc1cccc(Cl)c1C`, for which the EC50 is over 200 µM and the IC50 worked out at 63.1 µM. The like results for `O=C1CSC(c2c[nH]c3ccccc23)N1c1ccc(Cl)cc1Cl` (stereo not drawn) were, in that order, over 257 µM and 56.2 µM. The like results for `CCOC(=O)C(O)(C(=O)OCC)c1cc(C(C)(C)C)c(O)c(C(C)(C)C)c1` were, in that order, over 200 µM and 83.2 µM. For `Cn1c([N+](=O)[O-])cnc1N1CCN(c2nncs2)C1=O`, in that order: over 200 µM and over 200 µM.

Turning to `CCOC(=O)/C(C#N)=C/c1ccc(N(C)C)cc1`, the EC50 was over 77.6 µM and the IC50 was over 77.6 µM. In the case of `O=C(c1ccc(Cl)cc1)c1ccc(OCC(=O)N2CCN(c3ccccc3)CC2)cc1`, the EC50 was over 12 µM and the IC50 is over 12 µM. Regarding `CC1=N/C(=C\c2ccc(/C=C3/N=C(C)OC3=O)cc2)C(=O)O1`, the EC50 was over 851 µM and the IC50 was found to be 46.8 µM. For `CCC(=O)n1c(=O)n(-c2ccc([N+](=O)[O-])cc2)c(=O)n1C(=O)CC`, in that order: over 200 µM and over 200 µM. Regarding `Nn1c(=O)n(Cc2ccccc2)n(-c2ccccc2)c1=O`, the result was inactive. As to `O=C(O)c1cc2ccccc2c(S(=O)(=O)O)c1O`, the EC50 is over 200 µM and the IC50 is over 200 µM. Turning to `N#Cc1nc(-c2cccs2)oc1N`, the EC50 is over 200 µM and the IC50 was over 200 µM. Regarding `N#Cc1nc(-c2cccc(-c3nc(C#N)c(N)o3)n2)oc1N`, the result was inactive. Same read-out and setting: then `COc1ccc2cc1Oc1ccc(cc1)CC1c3c(cc4c(c3Oc3cc5c(cc3OC)CCN(C)C5C2)OCO4)CCN1C` (stereo not drawn), with “inactive”. Consider `Cc1ccc(S(=O)(=O)N/N=C(\c2nc3ccc(Cl)cc3[nH]c2=O)C(O)c2ccco2)cc1` (stereo not drawn), for which the EC50 is over 275 µM and the IC50 was 17 µM. In the case of `Cn1c(=O)oc(=O)c2ccccc21`, the result was inactive.

Regarding `CON(C)C(=O)[C@H]1C[C@@]1(C)CO`, the EC50 was over 200 µM and the IC50 is over 200 µM. On to `COc1cc(OC)c(/C=N\Nc2nc3ccccc3c(=O)n2-c2ccccc2)c(OC)c1`, for which the EC50 is over 50.1 µM and the concentration for half-maximal inhibition (IC50) amounted to 37.2 µM. Consider `COc1ccc(C2CCC(=O)CC2C(=O)O)cc1` (stereo not drawn), for which the EC50 is over 417 µM and the IC50 was over 417 µM. Take `COc1ccc2c(c1)[n+](=O)c(C(=O)C/C(=N\NC(=O)C[N+](C)(C)C)C(=O)Nc1cc(Cl)ccc1Cl)c(C)n2O`: the EC50 was over 1.23 µM and the IC50 was over 1.23 µM. Turning to `CC(=O)/C(=C/n1c(=S)sc2ccccc21)C(=O)Nc1ccccc1`, the EC50 is over 200 µM and the IC50 came out at 138 µM. Regarding `Cc1ccc(S(=O)(=O)n2c3ccc(Br)cc3c3nc4ccccc4nc32)cc1`, the EC50 is over 100 µM and the IC50 is over 100 µM. As to `Cc1c(NC(=O)CCl)c(=O)oc2c(C)c3occc(=O)c3cc12`, the EC50 is over 40.7 µM and the IC50 turned out to be 0.204 µM. The like results for `NC(=O)C(c1ccccc1)N1CCCC1` (stereo not drawn) were, in that order, over 200 µM and over 200 µM. Turning to `COC(=O)CC(CC(=O)C(=O)OC)C(=O)OC` (stereo not drawn), the EC50 was over 251 µM and the IC50 was over 251 µM. For the molecule `N#C/C(=C\c1cccc(Br)c1)C(=O)c1ccccc1`, the EC50 is over 115 µM and the IC50 was found to be 50.1 µM.

`CC(=Nc1ccc(Cl)c(Cl)c1)c1ccncc1`: the outcome was inactive. `O=C(COc1ccc(Cl)cc1)N1N=C(c2ccc(Cl)cc2)CC1(O)c1ccccc1` (stereo not drawn): the EC50 was over 16.2 µM and the IC50 was over 16.2 µM. As to `CC(C)CCC[C@@H](C)[C@H]1CC[C@H]2[C@@H]3CC=C4CC(OCCCCN(O)CCCSC5OC(CO)C(O)C(O)C5O)CC[C@]4(C)[C@H]3CC[C@]12C` (stereo partly drawn), the EC50 is over 200 µM and the IC50 was 35.5 µM.

Take `CN1C(CC(O)c2ccccc2)CCCC1CC(O)c1ccccc1` (stereo not drawn): the EC50 is over 200 µM and the IC50 was over 200 µM. For the molecule `c1cncc(-c2nc3sc(-c4cccnc4)nc3s2)c1`, the result was inactive.

As to `CC1(C)COC(c2cccc(C(O)c3ccc(Cl)cc3)c2)=N1` (stereo not drawn), the EC50 is over 200 µM and the IC50 is 38.9 µM. For `COc1cccc(C2c3cc4c(cc3OC3COC(=O)C32)OCO4)c1OC` (stereo not drawn), in that order: over 200 µM and 120 µM. Turning to `COCC1=C(O)C=C2Oc3c(C(C)=O)c(O)c(C)c(O)c3[C@@]2(C)C1=O`, the EC50 is over 100 µM and the IC50 came to 12 µM. Turning to `Cc1ccc(C2CC(c3ccc([N+](=O)[O-])cc3)=Nc3ccccc3S2)cc1` (stereo not drawn), the EC50 is over 13.8 µM and the IC50 was 7.76 µM. For `COc1ccc(S(=O)(=O)O)cc1NS(=O)(=O)c1ccc(C)cc1`, in that order: over 200 µM and over 200 µM. The like results for `CC(C)(C)[Si](C)(C)OC[C@H]1O[C@@H](n2ccc(=O)[nH]c2=O)[C@H](O[Si](C)(C)C(C)(C)C)[C@]1(O)[C@H](N=[N+]=[N-])C(N)=O` were, in that order, over 200 µM and 6.03 µM.

On to `c1ccc(CN2COc3ccc4c5c(ccc4c3C2)OCN(Cc2ccccc2)C5)cc1`, for which the EC50 is over 2.45 µM and the IC50 is over 2.45 µM. Regarding `Cc1nc(N/N=C/c2ccccc2Cl)[nH]c(=O)c1CCO`, the EC50 is over 100 µM and the IC50 was over 100 µM. With `N#CC1C(=N)Cc2ccccc2-c2ccccc21` (stereo not drawn), the EC50 was over 200 µM and the IC50 came out at 1.55 µM.

Regarding `Cc1nc2c(cnn2C)cc1CCc1ccccc1`, the EC50 was over 200 µM and the IC50 came out at 33.9 µM. For the molecule `CC(C)CCC[C@@H](C)[C@H]1CC[C@H]2[C@@H]3CC[C@H]4C[C@@H](CCC=C(c5cc(Cl)c(OCc6ccc(C(=O)O)cc6)c(C(=O)O)c5)c5cc(Cl)c(OCc6ccc(C(=O)O)cc6)c(C(=O)O)c5)CC[C@]4(C)[C@H]3CC[C@]12C`, the EC50 was 2.51 µM and the IC50 is 50.1 µM.
